Records with an inconclusive call do not appear. Active and inactive are the calls of the source. How the calls were made is not given here.
molecular target: Replicative DNA helicase DnaB (Mycobacterium tuberculosis (strain ATCC 25618 / H37Rv)) (UniProt P9WMR3); test: DnaB intein splicing inhibitors, dose response, biochemical, M. tuberculosis H37Rv, cell-free fluorescence (AID 449749)
Sequence (P9WMR3 whole entry, looked up): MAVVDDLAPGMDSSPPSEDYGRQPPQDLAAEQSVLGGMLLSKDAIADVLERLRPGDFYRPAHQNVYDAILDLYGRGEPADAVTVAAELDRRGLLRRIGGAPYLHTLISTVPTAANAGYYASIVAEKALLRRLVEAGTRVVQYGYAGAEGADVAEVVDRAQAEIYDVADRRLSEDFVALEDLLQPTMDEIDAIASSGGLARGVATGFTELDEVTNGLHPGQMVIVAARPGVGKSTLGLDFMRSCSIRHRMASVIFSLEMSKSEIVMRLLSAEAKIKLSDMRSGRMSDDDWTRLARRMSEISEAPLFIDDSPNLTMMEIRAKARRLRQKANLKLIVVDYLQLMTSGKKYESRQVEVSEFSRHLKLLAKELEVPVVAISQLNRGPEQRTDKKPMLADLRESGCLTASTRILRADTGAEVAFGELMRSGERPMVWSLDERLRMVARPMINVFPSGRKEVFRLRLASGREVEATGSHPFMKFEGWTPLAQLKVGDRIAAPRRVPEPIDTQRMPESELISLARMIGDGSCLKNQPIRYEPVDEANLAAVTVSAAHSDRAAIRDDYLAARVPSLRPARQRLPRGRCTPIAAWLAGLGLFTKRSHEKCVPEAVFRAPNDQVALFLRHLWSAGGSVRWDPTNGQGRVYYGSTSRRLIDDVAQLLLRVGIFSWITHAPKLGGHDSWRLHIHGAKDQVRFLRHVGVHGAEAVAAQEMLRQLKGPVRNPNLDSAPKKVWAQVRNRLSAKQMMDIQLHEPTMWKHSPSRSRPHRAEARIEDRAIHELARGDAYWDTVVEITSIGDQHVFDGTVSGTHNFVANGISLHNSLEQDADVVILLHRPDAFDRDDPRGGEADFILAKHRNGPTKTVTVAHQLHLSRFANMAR

SMILES	AC50
Cc1[nH][nH]c(=O)c1C(c1ccccc1[N+](=O)[O-])C(C#N)C#N (centres undefined)	> 12 µM (inactive)
Oc1cc(O)c2c(c1)O[C@H](c1ccc(O)c(O)c1)[C@H](O)C2	> 38 µM (inactive)
Cc1[nH][nH]c(=O)c1[C@@H](c1ccccc1[N+](=O)[O-])C(C#N)C#N	> 38 µM (inactive)
COc1ccc2ccc3c(c2c1)N=C[C@]1(O3)N(C)c2ccccc2C1(C)C	> 38 µM (inactive)

From PubChem BioAssay AID449749 (Broad Institute, 2010)
